# Data reported in patent publication US20240351997A1, “NOVEL PARP7 INHIBITOR AND USE THEREOF” (SHANGHAI QILU PHARMACEUTICAL RESEARCH AND DEVELOPMENT …, priority 2021, published 2024).
# Target: PARP7 (Homo sapiens (Human), UniProt Q7Z3E1)
# Assay: In vitro enzymology experiment of PARP7 (enzymatic inhibition)
# Type: biochemical
# How it was run: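 Histone-coated plate ADP-ribosylation format: compound preincubated 10 min at room temperature with preincubated (25 °C, 10 min) enzyme mixture; incorporated biotin detected by streptavidin-HRP and QuantaRed fluorescence (Ex550/Em620).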
# PARP7, sequence (Q7Z3E1 whole entry): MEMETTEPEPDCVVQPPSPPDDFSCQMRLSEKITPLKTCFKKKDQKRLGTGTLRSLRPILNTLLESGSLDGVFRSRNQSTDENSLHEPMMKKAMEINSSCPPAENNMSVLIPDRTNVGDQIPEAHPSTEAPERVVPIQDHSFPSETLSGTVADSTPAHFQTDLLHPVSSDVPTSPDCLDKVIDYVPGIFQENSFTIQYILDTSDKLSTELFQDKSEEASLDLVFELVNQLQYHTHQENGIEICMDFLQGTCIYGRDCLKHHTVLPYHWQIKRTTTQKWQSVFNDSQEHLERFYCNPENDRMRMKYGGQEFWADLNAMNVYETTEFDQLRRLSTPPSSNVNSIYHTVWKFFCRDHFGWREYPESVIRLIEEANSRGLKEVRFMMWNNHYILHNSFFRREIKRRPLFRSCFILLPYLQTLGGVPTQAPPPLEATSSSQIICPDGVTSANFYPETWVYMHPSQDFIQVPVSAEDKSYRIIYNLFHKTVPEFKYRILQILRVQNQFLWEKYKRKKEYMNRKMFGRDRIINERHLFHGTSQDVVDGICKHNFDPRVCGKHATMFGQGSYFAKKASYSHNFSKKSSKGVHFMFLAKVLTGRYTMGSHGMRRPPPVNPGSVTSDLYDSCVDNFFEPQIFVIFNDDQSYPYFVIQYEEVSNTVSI
row,IC50,SMILES
1,0.61 nM,"O=C(OCCc1c[nH]c(=O)c(C(F)(F)F)c1)N1CCN(c2ncc(C(F)(F)F)cn2)[C@H](CO)C1 [Example 111, 2-(6-Oxo-5-(trifluoromethyl)-1,6-dihydropyridin-3-yl)ethyl (S)-3-(hydroxymethyl)-4-(5-(trifluoromethyl)pyrimidin-2-yl)piperazine-1-carboxylate]"
2,1.18 nM,"C[C@@H](Cc1c[nH]c(=O)c(C(F)(F)F)c1)OC(=O)N[C@@H]1CCN(c2ncc(C(F)(F)F)cn2)C1 [Example 52, (S)-1-(6-Oxo-5-(trifluoromethyl)-1,6-dihydropyridin-3-yl)propan-2-yl ((R)-1-(5-(trifluoromethyl)pyrimidin-2-yl)pyrrolidin-3-yl)carbamate]"
3,0.53 nM,"O=C(OCCc1c[nH]c(=O)c(C(F)(F)F)c1)N1CCN(c2ncc(C(F)(F)F)cn2)[C@@H](CO)C1 [Example 104, 2-(6-Oxo-5-(trifluoromethyl)-1,6-dihydropyridin-3-yl)ethyl (R)-3-(hydroxymethyl)-4-(5-(trifluoromethyl)pyrimidin-2-yl)piperazine-1-carboxylate]"
4,0.71 nM,"C[C@@H]1CN(c2ncc(C(F)(F)F)cn2)C[C@H](C)N1C(=O)OCCc1c[nH]c(=O)c(C(F)(F)F)c1 [Example 150, 2-(6-Oxo-5-(trifluoromethyl)-1,6-dihydropyridin-3-yl)ethyl (2S,6R)-2,6-dimethyl-4-(5-(trifluoromethyl)pyrimidin-2-yl)piperazine-1-carboxylate]"
5,1.34 nM,"C[C@@H](Cc1c[nH]c(=O)c(C(F)(F)F)c1)OC(=O)N[C@H]1CCN(c2ncc(C(F)(F)F)cn2)C1 [Example 51, (S)-1-(6-Oxo-5-(trifluoromethyl)-1,6-dihydropyridin-3-yl)propan-2-yl ((S)-1-(5-(trifluoromethyl)pyrimidin-2-yl)pyrrolidin-3-yl)carbamate]"
6,0.83 nM,"C[C@@H](Cc1c[nH]c(=O)c(C(F)(F)F)c1)OC(=O)N1CC=C(c2ccc(C(F)(F)F)cn2)CC1 [Example 98, (S)-1-(6-Oxo-5-(trifluoromethyl)-1,6-dihydropyridin-3-yl)propan-2-yl 5-(trifluoromethyl)-3′,6′-dihydro-[2,4′-bipyridine]-1′(2′H)-carboxylate]"
7,0.62 nM,"O=C(O[C@@H](CO)Cc1c[nH]c(=O)c(C(F)(F)F)c1)N1CCN(c2ncc(C(F)(F)F)cn2)CC1 [Example 117, (R)-1-Hydroxy-3-(6-oxo-5-(trifluoromethyl)-1,6-dihydropyridin-3-yl)propan-2-yl 4-(5-(trifluoromethyl)pyrimidin-2-yl)piperazine-1-carboxylate]"
8,0.48 nM,"CC[C@H]1CN(C(=O)OCCc2c[nH]c(=O)c(C(F)(F)F)c2)CCN1c1ncc(C(F)(F)F)cn1 [Example 124, 2-(6-Oxo-5-(trifluoromethyl)-1,6-dihydropyridin-3-yl)ethyl (S)-3-ethyl-4-(5-(trifluoromethyl)pyrimidin-2-yl)piperazine-1-carboxylate]"
9,0.61 nM,"C[C@@H](Cc1c[nH]c(=O)c(C(F)(F)F)c1)OC(=O)N1CCN(c2ncc(C(C)(C)O)cn2)CC1 [Example 100, (S)-1-(6-Oxo-5-(trifluoromethyl)-1,6-dihydropyridin-3-yl)propan-2-yl 4-(5-(2-hydroxypropan-2-yl)pyrimidin-2-yl)piperazine-1-carboxylate]"
10,2.3 nM,"C[C@H]1CN(c2ncc(C(F)(F)F)cn2)C[C@H](C)N1C(=O)OCCc1c[nH]c(=O)c(C(F)(F)F)c1 [Example 145, 2-(6-Oxo-5-(trifluoromethyl)-1,6-dihydropyridin-3-yl)ethyl (2S,6S)-2,6-dimethyl-4-(5-(trifluoromethyl)pyrimidin-2-yl)piperazine-1-carboxylate]"
11,4.98 nM,"C[C@@H](Cc1c[nH]c(=O)c(C(F)(F)F)c1)OC(=O)N1CCC(Nc2ncc(C(F)(F)F)cn2)CC1 [Example 72, (S)-1-(6-Oxo-5-(trifluoromethyl)-1,6-dihydropyridin-3-yl)propan-2-yl 4-((5-(trifluoromethyl)pyrimidin-2-yl)amino) piperidine-1-carboxylate]"
12,1.4 nM,"C[C@@H](Cc1c[nH]c(=O)c(C(F)(F)F)c1)OC(=O)N1CCN(c2ncc(C(F)(F)F)cn2)C[C@@H]1CO [Example 78, (S)-1-(6-Oxo-5-(trifluoromethyl)-1,6-dihydropyridin-3-yl)propan-2-yl (R)-2-(hydroxymethyl)-4-(5-(trifluoromethyl)pyrimidin-2-yl)piperazine-1-carboxylate]"
13,0.81 nM,"N#CC[C@@H]1CN(c2ncc(C(F)(F)F)cn2)CCN1C(=O)OCCc1c[nH]c(=O)c(C(F)(F)F)c1 [Example 128, 2-(6-Oxo-5-(trifluoromethyl)-1,6-dihydropyridin-3-yl)ethyl (R)-2-(cyanomethyl)-4-(5-(trifluoromethyl)pyrimidin-2-yl)piperazine-1-carboxylate]"

# The next lines start with the compound.
row,SMILES,IC50
1,"Cc1[nH]c(=O)c(C(F)(F)F)cc1C[C@H](C)OC(=O)N1CCN(c2ncc(C(F)(F)F)cn2)CC1 [Example 133, (S)-1-(2-Methyl-6-oxo-5-(trifluoromethyl)-1,6-dihydropyridin-3-yl)propan-2-yl 4-(5-(trifluoromethyl)pyrimidin-2-yl)piperazine-1-carboxylate]",0.76 nM
2,"Cc1cc(CC(C)OC(=O)N2CCN(c3ncc(C(F)(F)F)cn3)CC2)c[nH]c1=O (centres unmarked) [Example 67, 1-(5-Methyl-6-oxo-1,6-dihydropyridin-3-yl)propan-2-yl 4-(5-(trifluoromethyl)pyrimidin-2-yl)piperazine-1-carboxylate]",0.76 nM
3,"Cc1ccc(OC(=O)N2CCN(c3ncc(C(F)(F)F)cn3)CC2)cc1-c1c[nH]c(=O)c(C(F)(F)F)c1 [Example 135, 4-Methyl-3-(6-oxo-5-(trifluoromethyl)-1,6-dihydropyridin-3-yl)phenyl 4-(5-(trifluoromethyl)pyrimidin-2-yl)piperazine-1-carboxylate]",2.78 nM
4,"C[C@@H]1CN(C(=O)OCCc2c[nH]c(=O)c(C(F)(F)F)c2)[C@@H](C)CN1c1ncc(C2CC2)cn1 [Example 183, 2-(6-Oxo-5-(trifluoromethyl)-1,6-dihydropyridin-3-yl)ethyl (2S,5R)-4-(5-cyclopropylpyrimidin-2-yl)-2,5-dimethylpiperazine-1-carboxylate]",1 nM
5,"O=C(OCC1CCCC1c1c[nH]c(=O)c(C(F)(F)F)c1)N1CCN(c2ncc(C(F)(F)F)cn2)CC1 (centres unmarked) [Example 59, (2-(6-Oxo-5-(trifluoromethyl)-1,6-dihydropyridin-3-yl)cyclopentyl)methyl 4-(5-(trifluoromethyl)pyrimidin-2-yl)piperazine-1-carboxylate]",1.06 nM
6,"Cc1cnc(N2C[C@H](C)N(C(=O)OCCc3c[nH]c(=O)c(C(F)(F)F)c3)[C@@H](C)C2)nc1 [Example 164, 2-(6-Oxo-5-(trifluoromethyl)-1,6-dihydropyridin-3-yl)ethyl (2S,6S)-2,6-dimethyl-4-(5-methylpyrimidin-2-yl)piperazine-1-carboxylate]",5.6 nM
7,"C[C@@H](Cc1c[nH]c(=O)c(C(F)(F)F)c1)OC(=O)N1CCN(c2cnc(C#N)cn2)CC1 [Example 76, (S)-1-(6-Oxo-5-(trifluoromethyl)-1,6-dihydropyridin-3-yl)propan-2-yl 4-(5-cyanopyrazin-2-yl)piperazine-1-carboxylate]",0.67 nM
8,"O=C(Oc1ccnc(-c2c[nH]c(=O)c(C(F)(F)F)c2)c1)N1CCN(c2ncc(C(F)(F)F)cn2)CC1 [Example 137, 6′-Oxo-5′-(trifluoromethyl)-1′,6′-dihydro-[2,3′-bipyridin]-4-yl 4-(5-(trifluoromethyl)pyrimidin-2-yl)piperazine-1-carboxylate]",2.4 nM
9,"O=C(Oc1cncc(-c2c[nH]c(=O)c(C(F)(F)F)c2)c1)N1CCN(c2ncc(C(F)(F)F)cn2)CC1 [Example 136, 6′-Oxo-5′-(trifluoromethyl)-1′,6′-dihydro-[3,3′-bipyridin]-5-yl 4-(5-(trifluoromethyl)pyrimidin-2-yl)piperazine-1-carboxylate]",3.53 nM
10,"O=C(CCNc1c[nH]c(=O)c(C(F)(F)F)c1)N1CCN(c2ncc(C(F)(F)F)cn2)CC1 [Example 31, 5-((3-Oxo-3-(4-(5-(trifluoromethyl)pyrimidin-2-yl)piperazin-1-yl)propyl)amino)-3-(trifluoromethyl)pyridin-2(1H)-one]",1.19 nM
11,"O=C(CCO[C@H]1CCC[C@@H]1c1c[nH]c(=O)c(C(F)(F)F)c1)N1CCN(c2ncc(C(F)(F)F)cn2)CC1 [Example 39, 5-((1R,2S)-2-(3-Oxo-3-(4-(5-(trifluoromethyl)pyrimidin-2-yl)piperazin-1-yl)propoxy)cyclopentyl)-3-(trifluoromethyl)pyridin-2(1H)-one]",1.5 nM
12,"C[C@@H](Cc1c[nH]c(=O)c(C(F)(F)F)c1)OC(=O)N1CCN(c2ncc(CO)cn2)CC1 [Example 75, (S)-1-(6-Oxo-5-(trifluoromethyl)-1,6-dihydropyridin-3-yl)propan-2-yl 4-(5-(hydroxymethyl)pyrimidin-2-yl)piperazine-1-carboxylate]",0.83 nM
13,Cc1cnc(N2CCN(C(=O)OCCc3c[nH]c(=O)c(C(F)(F)F)c3)CC2)nc1 [Example 105],0.92 nM
14,"Cc1cnc(N2C[C@H](C)N(C(=O)O[C@@H](C)Cc3c[nH]c(=O)c(C(F)(F)F)c3)C[C@H]2C)nc1 [Example 170, (S)-1-(6-Oxo-5-(trifluoromethyl)-1,6-dihydropyridin-3-yl)propan-2-yl (2S,5R)-2,5-dimethyl-4-(5-methylpyrimidin-2-yl)piperazine-1-carboxylate]",0.87 nM
15,"O=C(CCOC[C@H]1CCCN1c1c[nH]c(=O)c(C(F)(F)F)c1)N1CCN(c2ncc(C(F)(F)F)cn2)CC1 [Example 10, (R)-5-(2-((3-Oxo-3-(4-(5-(trifluoromethyl)pyrimidin-2-yl)piperazin-1-yl)propoxy)methyl)pyrrolidin-1-yl)-3-(trifluoromethyl)pyridin-2(1H)-one]",6.7 nM
16,"CC(Cc1c[nH]c(=O)c(C(F)(F)F)c1)OC(=O)N1CCN(c2ncccc2C#N)CC1 (centres unmarked) [Example 46, 1-(6-Oxo-5-(trifluoromethyl)-1,6-dihydropyridin-3-yl)propan-2-yl 4-(3-cyanopyridin-2-yl)piperazine-1-carboxylate]",1.94 nM
